Where two headings read alike, the source gives them in different places.
How the values were obtained:
[1] = target: T1, CFTR-mediated short-circuit current in F508del/MF-HBE cells (Homo sapiens, UniProt P13569, DEL508-508); experiment: HBE2 assay: Ussing chamber assay of CFTR-mediated short-circuit currents; assay type: cell-based
T1 construct: human bronchial epithelial (HBE) cells derived from CF subjects; endogenous in cells; host or cells: primary human bronchial epithelial cells from CF subjects (F508del/MF-HBE)
T1 sequence (P13569 with tags, fused parts or gaps DEL508-508): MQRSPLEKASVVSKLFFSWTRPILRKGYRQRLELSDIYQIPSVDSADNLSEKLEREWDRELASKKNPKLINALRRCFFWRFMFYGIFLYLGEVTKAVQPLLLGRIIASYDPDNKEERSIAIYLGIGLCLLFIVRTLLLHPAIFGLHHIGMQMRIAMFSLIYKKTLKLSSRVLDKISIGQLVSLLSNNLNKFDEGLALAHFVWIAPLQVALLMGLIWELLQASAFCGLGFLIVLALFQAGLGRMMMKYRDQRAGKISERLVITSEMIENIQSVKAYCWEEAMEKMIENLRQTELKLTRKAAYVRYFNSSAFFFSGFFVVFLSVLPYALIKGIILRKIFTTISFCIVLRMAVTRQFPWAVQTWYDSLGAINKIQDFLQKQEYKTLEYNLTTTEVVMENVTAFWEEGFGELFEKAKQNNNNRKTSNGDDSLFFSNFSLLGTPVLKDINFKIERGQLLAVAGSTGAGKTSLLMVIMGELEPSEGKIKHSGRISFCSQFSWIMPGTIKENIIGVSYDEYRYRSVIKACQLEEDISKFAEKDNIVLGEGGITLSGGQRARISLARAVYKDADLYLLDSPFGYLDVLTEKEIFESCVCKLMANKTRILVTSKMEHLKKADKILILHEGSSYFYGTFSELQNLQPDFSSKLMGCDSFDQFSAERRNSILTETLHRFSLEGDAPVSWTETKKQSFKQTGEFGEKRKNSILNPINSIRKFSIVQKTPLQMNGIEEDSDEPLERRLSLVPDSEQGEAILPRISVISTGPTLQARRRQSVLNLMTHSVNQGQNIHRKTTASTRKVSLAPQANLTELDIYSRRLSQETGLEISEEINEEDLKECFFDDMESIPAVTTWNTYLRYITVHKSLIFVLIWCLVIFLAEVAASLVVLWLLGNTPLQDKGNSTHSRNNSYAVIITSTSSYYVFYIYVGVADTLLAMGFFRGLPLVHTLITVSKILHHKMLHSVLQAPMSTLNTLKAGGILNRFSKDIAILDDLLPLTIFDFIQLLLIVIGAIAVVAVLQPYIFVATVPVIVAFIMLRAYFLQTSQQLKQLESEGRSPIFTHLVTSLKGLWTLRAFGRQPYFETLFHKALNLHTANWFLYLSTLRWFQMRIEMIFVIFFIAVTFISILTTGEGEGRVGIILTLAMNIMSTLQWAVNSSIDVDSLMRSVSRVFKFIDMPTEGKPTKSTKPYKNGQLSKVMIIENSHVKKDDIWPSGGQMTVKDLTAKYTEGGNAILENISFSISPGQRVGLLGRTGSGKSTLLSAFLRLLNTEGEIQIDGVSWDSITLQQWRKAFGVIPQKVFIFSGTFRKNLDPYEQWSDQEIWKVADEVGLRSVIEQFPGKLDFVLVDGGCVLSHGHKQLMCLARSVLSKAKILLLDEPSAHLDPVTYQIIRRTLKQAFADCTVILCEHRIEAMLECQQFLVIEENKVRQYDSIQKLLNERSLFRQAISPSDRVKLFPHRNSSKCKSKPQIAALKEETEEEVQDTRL
Description: 1. Ussing Chamber Assay of CFTR-Mediated Short-Circuit Currents
Ussing chamber experiments were performed using human bronchial epithelial (HBE) cells derived from CF subjects heterozygous for F508del and a minimal function CFTR mutation (F508del/MF-HBE) and cultured as previously described (Neuberger T, Burton B, Clark H, Van Goor F Methods Mol Biol 2011:741:39-54). After four days the apical media was removed, and the cells were grown at an air liquid interface for >14 days prior to use.
To isolate the CFTR-mediated short-circuit (ISC) current, F508del/MF-HBE grown on Costar® Snapwell™ cell culture inserts were mounted in an Ussing chamber and the transepithelial ISC was measured under voltage-clamp recording conditions (Vhold=0 mV) at 37° C. The basolateral solution contained (in mM) 145 NaCl, 0.83 K2HPO4, 3.3 KH2PO4, 1.2 MgCl2, 1.2 CaCl2, 10 Glucose, 10 HEPES (pH adjusted to 7.4 with NaOH) and the apical solution contained (in mM) 145 NaGluconate, 1.2 MgCl2, 1.2 CaCl2, 10 glucose, 10 HEPES (pH adjusted to 7.4 with NaOH) and 30 μM amiloride to block the epithelial sodium channel. Forskolin (20 μM) was added to the apical surface to activate CFTR, followed by apical addition of a CFTR inhibitor cocktail consisting of BPO, GlyH-101, and CFTR inhibitor 172 (each at 20 μM final assay concentration) to specifically isolate CFTR currents. The CFTR-mediated ISC (μA/cm^2) for each condition was determined from the peak forskolin response to the steady-state current following inhibition.
2. Identification of Corrector Compounds
The activity of the CFTR corrector compounds on the CFTR-mediated ISC was determined in Ussing chamber studies as described above. The F508del/MF-HBE cell cultures were either incubated with the corrector compounds at a range of concentrations in combination with 44 nM (6R,12R)-17-amino-12-methyl-6,15-bis(trifluoromethyl)-13,19-dioxa-3,4,18-triazatricyclo[12.3.1.12,5]nonadeca-1(18),2,4,14,16-pentaen-6-ol or were incubated with the corrector compounds at a single fixed concentration of 1 and 3 μM in combination with 44 nM (6R,12R)-17-amino-12-methyl-6,15-bis(trifluoromethyl)-13,19-dioxa-3,4,18-triazatricyclo[12.3.1.12,5]nonadeca-1(18),2,4,14,16-pentaen-6-ol for 18-24 hours at 37° C. and in the presence of […]. The concentration of corrector compounds with 44 nM (6R,12R)-17-amino-12-methyl-6,15-bis(trifluoromethyl)-13,19-dioxa-3,4,18-triazatricyclo[12.3.1.12,5]nonadeca-1(18),2,4,14,16-pentaen-6-ol during the 18-24 hours incubations was kept constant throughout the Ussing chamber measurement of the CFTR-mediated ISC to ensure compounds were present throughout the entire experiment.

[2] = 13-membered ring, DMF
[3] = 13-membered ring, DMF; remark: listed apart in the source
[4] = target: T2, CFTR-mediated chloride transport in human intestinal epithelial enteroid cells (Homo sapiens, UniProt P13569); experiment: Membrane potential dye, Enteroid Assay B; assay type: cell-based; conditions: Enteroid Assay B; for EC50: read-out: Ent. B EC50
T2 sequence (P13569 with tags, fused parts or gaps DEL508-508): as above
In short: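 Human intestinal enteroid cells were loaded for 25 min at room temperature with methyl oxonol membrane-potential dye plus […] (CaCCinh-A01, Chicago Sky Blue). They were then washed into chloride-free gluconate buffer. Chloride transport was triggered by stimulation solution and fluorescence read for 15 min.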

[5] = target: T2, CFTR-mediated chloride transport in human intestinal epithelial enteroid cells; experiment: Membrane potential dye, Enteroid Assay A; assay type: cell-based; conditions: Enteroid Assay A; for EC50: read-out: Ent. A EC50
In short: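 Membrane potential dye (20 μM methyl oxonol, with 30 μM CaCCinh-A01 and 30 μM Chicago Sky Blue) loaded 25 min at room temperature into ROCK-inhibitor-seeded human enteroid cells. Chloride-free stimulation buffer triggered transport, followed by 15 min fluorescence. % Activity relative to 3 μM/3 μM/300 nM triple-combination control.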

## Cc1cccc(C)c1-c1cc2nc(n1)NS(=O)(=O)c1cccc(c1)C(=O)N1[C@@H](c3ncc(OC(C)C)cn3)CCC[C@H]1[C@@H](CC(C)C)O2 [Compound 424]
[1]
  activation at 3 µM: 30 to 60%

## Cc1cccc(C)c1-c1cc2nc(n1)NS(=O)(=O)c1cccc(c1)C(=O)N1[C@@H](c3cncc(N(C)C4CCC4)n3)CCC[C@@H](CC(C)C)[C@H]1CO2 (single isomer, unassigned) [Compound 401, 4-[6-[cyclobutyl(methyl)amino]pyrazin-2-yl]-14-(2,6-dimethylphenyl)-8-isobutyl-18,18-dioxo-11-oxa-18λ^6-thia-3,15,17,24-tetrazatetracyclo[17.3.1.112,16.03,9]tetracosa-1(22),12,14,16(24),19(23),20-hexaen-2-one]
[1]
  HBE2 Activity at 3 μM (%): ++ (++ is 30-60%)

## Cc1cccc(C)c1-c1cc2nc(n1)NS(=O)(=O)c1cccc(c1)C(=O)N1[C@@H](c3ncc(OC(C)C)cn3)CCC[C@@H](O2)[C@H]1CC(C)C (single isomer, unassigned) [Compound 404, 12-(2,6-dimethylphenyl)-21-isobutyl-20-(5-isopropoxypyrimidin-2-yl)-8,8-dioxo-15-oxa-8λ^6-thia-1,9,11,22-tetrazatetracyclo[14.4.1.13,7.110,14]tricosa-3,5,7(23),10(22),11,13-hexaen-2-one]
[1]
  HBE2 Activity at 3 μM (%): ++ (++ is 30-60%)

## Cc1cccc(C)c1-c1cc2nc(n1)NS(=O)(=O)c1cccc(c1)C(=O)N1[C@@H](c3cncc(N(C)C4CCC4)n3)CCC[C@@H](CC(C)C)[C@H]1CO2 (single isomer, unassigned) [Compound 402, 4-[6-[Cyclobutyl(methyl)amino]pyrazin-2-yl]-14-(2,6-dimethylphenyl)-8-isobutyl-18,18-dioxo-11-oxa-18λ^6-thia-3,15,17,24-tetrazatetracyclo[17.3.1.112,16.03,9]tetracosa-1(22),12,14,16(24),19(23),20-hexaen-2-one]
[1]
  HBE2 Activity at 3 μM (%): +++ (+++ is >60%)

## Cc1cccc(C)c1-c1cc2nc(n1)NS(=O)(=O)c1cccc(c1)C(=O)N1[C@@H](CCCC[C@@H]1c1ncc(OCc3ccccc3)cn1)CO2 [Compound 420]
[1]
  HBE2 Activity at 3 μM (%): + (+ is <30+)

## Cc1cccc(C)c1-c1cc2nc(n1)NS(=O)(=O)c1cccc(c1)C(=O)N1[C@@H](c3ncc(OC(C)C)cn3)CC[C@H](O2)[C@H]1CC(C)C [Compound 426]
[1]
  activation at 3 µM: 30 to 60%

## Cc1cccc(C)c1-c1cc2nc(n1)NS(=O)(=O)c1cccc(c1)C(=O)N1C(c3ncc(OC(C)C)cn3)CCCC(CC(C)C)C1CO2 (stereo not drawn)
[2]; from Cc1cccc(C)c1-c1cc(OCC2NC(c3ncc(OC(C)C)cn3)CCCC2CC(C)C)nc(NS(=O)(=O)c2cccc(C(=O)O)c2)n1, amide bond, CDMT/NMM, 13.7 mM, 48.0 h, 2 steps
  ring closure, yield after HPLC: 12%
[3]; from Cc1cccc(C)c1-c1cc(OCC2NC(c3ncc(OC(C)C)cn3)CCCC2CC(C)C)nc(NS(=O)(=O)c2cccc(C(=O)O)c2)n1, amide bond, CDMT/NMM, 14.3 mM, 48.0 h, 2 steps
  ring closure, isolated yield: 41%

## Cc1cccc(C)c1-c1cc2nc(n1)NS(=O)(=O)c1cccc(c1)C(=O)N1[C@@H](c3cncc(N(C)C4CCC4)n3)CCC[C@@H](CC(C)C)[C@H]1CO2 (single isomer, unassigned) [Compound 400, 4-[6-[Cyclobutyl(methyl)amino]pyrazin-2-yl]-14-(2,6-dimethylphenyl)-8-isobutyl-18,18-dioxo-11-oxa-18λ^6-thia-3,15,17,24-tetrazatetracyclo[17.3.1.112,16.03,9]tetracosa-1(22),12,14,16(24),19(23),20-hexaen-2-one]
[1]
  HBE2 Activity at 3 μM (%): +++ (+++ is >60%)

## Cc1cccc(C)c1-c1cc2nc(n1)NS(=O)(=O)c1cccc(c1)C(=O)N1CCc3cc(C(C)(C)C)ccc3C1CO2 (single isomer, unassigned) [Compound 235, 8-tert-butyl-17-(2,6-dimethylphenyl)-14-oxa-21λ^6-thia-3,18,20,27-tetraazapentacyclo[20.3.1.115,19.03,12.06,11]heptacosa-1(26),6(11),7,9,15(27),16,18,22,24-nonaene-2,21,21-trione]
[4]
  Ent. B Max Activity (%): ++ (++ is 30-60%)
  EC50: < 1000 nM
[3]; from Cc1cccc(C)c1-c1cc(OCC2NCCc3cc(C(C)(C)C)ccc32)nc(NS(=O)(=O)c2cccc(C(=O)O)c2)n1, amide bond, HATU/Et3N, 16.5 mM, 25.0 °C, 16.0 h
  ring closure, isolated yield: 34%

## Cc1cccc(C)c1-c1cc2nc(n1)NS(=O)(=O)c1cccc(c1)C(=O)N1[C@@H](c3ncc(OC(C)C)cn3)CCC[C@H]1[C@H](CC(C)C)O2 [Compound 423]
[1]
  activation at 3 µM: 30 to 60%

## Cc1cccc(C)c1-c1cc2nc(n1)NS(=O)(=O)c1cccc(c1)C(=O)N1CCN(Cc3ccccc3)CC(O2)C1CC(C)C (stereo not drawn)
[2]; from Cc1cccc(C)c1-c1cc(Cl)nc(NS(=O)(=O)c2cccc(C(=O)N3CCN(Cc4ccccc4)CC(O)C3CC(C)C)c2)n1, snar bond, NaH, 15.2 mM, 25.0 °C, 24.0 h
  ring closure, yield after HPLC: 11%
[3]; from Cc1cccc(C)c1-c1cc(Cl)nc(NS(=O)(=O)c2cccc(C(=O)N3CCN(Cc4ccccc4)CC(O)C3CC(C)C)c2)n1, snar bond, NaH, 15.6 mM, 25.0 °C, 23.0 h
  ring closure, isolated yield: 21%

## Cc1cccc(C)c1-c1cc2nc(n1)NS(=O)(=O)c1cccc(c1)C(=O)N1C[C@@H](CCC1CC(C)C)O2 (stereo partly drawn) [Compound 234, (3R)-18-(2,6-Dimethylphenyl)-6-(2-methylpropyl)-2-oxa-14λ^6-thia-7,15,17,20-tetraazatetracyclo[14.3.1.13,7.19,13]docosa-1(20),9(21),10,12,16,18-hexaene-8,14,14-trione]
[4]
  Ent. B Max Activity (%): +++ (+++ is >600%)
  EC50: < 1000 nM
[3]; from Cc1cccc(C)c1-c1cc(Cl)nc(NS(=O)(=O)c2cccc(C(=O)N3C[C@H](O)CCC3CC(C)C)c2)n1, snar bond, NaH, 11.6 mM, 25.0 °C, 16.0 h
  ring closure, isolated yield: 38%

## Cc1cccc(C)c1-c1cc2nc(n1)NS(=O)(=O)c1cccc(c1)C(=O)N1CCN(C(=O)OC(C)(C)C)[C@H](CC(C)C)[C@H](C1)O2 [Compound 114, tert-Butyl (16S,17R)-12-(2,6-dimethylphenyl)-17-(2-methylpropyl)-2,8,8-trioxo-15-oxa-8λ^6-thia-1,9,11,18,22-pentaazatetracyclo[14.4.1.13,7.110,14]tricosa-3(23),4,6,10(22),11,13-hexaene-18-carboxylate]
[3]; from Cc1cccc(C)c1-c1cc(Cl)nc(NS(=O)(=O)c2cccc(C(=O)N3CCN(C(=O)OC(C)(C)C)[C@H](CC(C)C)[C@@H](O)C3)c2)n1, snar bond, NaH, 30.9 mM, 1.67 h
  ring closure, isolated yield: 34%
[5]
  Ent. A Max Activity (%): +++ (+++ is >600%)
  EC50: < 1000 nM

## Cc1cccc(C)c1-c1cc2nc(n1)NS(=O)(=O)c1cccc(c1)C(=O)N1C[C@@H](CN(C(=O)OC(C)(C)C)C[C@@H]1CC(C)(C)C)O2 [Compound 134, tert-Butyl (16S,20S)-12-(2,6-dimethylphenyl)-20-(2,2-dimethylpropyl)-2,8,8-trioxo-15-oxa-8λ^6-thia-1,9,11,18,22-pentaazatetracyclo[14.4.1.13,7.110,14]tricosa-3(23),4,6,10(22),11,13-hexaene-18-carboxylate]
[3]; from Cc1cccc(C)c1-c1cc(O[C@H]2CN[C@@H](CC(C)(C)C)CN(C(=O)OC(C)(C)C)C2)nc(NS(=O)(=O)c2cccc(C(=O)O)c2)n1, amide bond, HATU/DIEA, 29.2 mM, 25.0 °C, 0.33 h
  ring closure, isolated yield: 57%
[5]
  Ent. A Max Activity (%): ++ (++ is 30-60%)
  EC50: < 1000 nM
